Measured values taken from paper PMC10531311, “Anti-Inflammatory Activities of 8-Benzylaminoxanthines Showing High Adenosine A2A and Dual A1/A2A Receptor Affinity” (International Journal of Molecular Sciences, 2023).
Marks after values point to notes of the source that are not given here.

Key:
formalin test in mice = assay: Formalin test; type: in vivo, albino Swiss mice; details: mice
Description: Injection of formalin into the dorsal surface of the hind paw of a mouse produces a biphasic nocifensive behavioral response; i.e., licking, biting, flinching or lifting of the injected paw. The acute (neurogenic) nociceptive phase lasts for the first 5 min and is followed by a period of little activity for the next 10 min. The first phase of the test is directly associated with nociceptor stimulation and the development of neurogenic inflammation. The second (late) phase occurs between 15 and 30 min after formalin injection. The second phase depends on peripheral inflammation and the central sensitization of pain. Since this phase reflects the activation of inflammatory processes, the compounds active in this phase of the experiment also have an anti-inflammatory effect. The tested compounds 19, 22 and 24, were investigated in three doses: 10, 20 and 40 mg/kg bw. ASA (acetylsalicylic acid) was used as a reference compound and administered in doses of 50, 100 and 200 mg/kg. […] The strongest effect in this assay was produced by 24. […] In addition, this anti-nociceptive and anti-inflammatory effect was approximately 13.8 times greater than that observed for the reference compound (ASA). […] ASA also attenuated statistically significant pain responses in the late phases of the formalin test. […] The in vivo experiments were carried out on male albino Swiss mice weighing 18–26 g and male Wistar rats weighing 150–180 g. The animals were housed in constant temperature facilities exposed to a 12:12 light-dark cycle and maintained on a standard pellet diet and tap water given ad libitum. The control and experimental groups consisted of 6–8 animals each. The investigated compounds were intraperitoneally (ip) administered in the form of a suspension in 0.5% methylcellulose. Control animals received the equivalent volume of solvent. All procedures were conducted according to the guidelines of ICLAS (International Council on Laboratory Animals Science) and were approved by the Local Ethics Committee of the Jagiellonian University in Kraków. The mice were pretreated with the test compound or the vehicle and were allowed to acclimate in Plexiglas observation chambers (20 × 30 × 15 cm) for 30 min before the test. Then, 20 μL of a 5% formalin solution was intraplantarly injected into the right hind paw using a 26-gauge needle. Immediately after formalin injection, the animals were individually placed into glass beakers and were observed during the next 30 min. Time (in seconds) spent on licking or biting the injected paw in selected intervals, 0–5, 15–20, 20–25 and 25–30 min, was measured in each experimental group and was an indicator of nociceptive behavior [41]. The ED50 values and their confidence limits were estimated by the method of Litchfield and Wilcoxon.

human adenosine A2BR = target: T1, human adenosine A2BR (Homo sapiens, UniProt P29275); assay: Radioligand binding at human adenosine A2B receptor vs. [3H]PSB-603; details: for inhibition at 1 µM: CHO cells, read-out: A2BR vs. [³H]PSB-603 % Inhibition ± SEM at 1 µM; for Ki: human recombinant receptor in CHO cells, read-out: A2BR vs. [³H]PSB-603 Ki ± SEM
T1 construct: expressed in transfected cells; host or cells: CHO cells
T1 sequence (P29275 1-332): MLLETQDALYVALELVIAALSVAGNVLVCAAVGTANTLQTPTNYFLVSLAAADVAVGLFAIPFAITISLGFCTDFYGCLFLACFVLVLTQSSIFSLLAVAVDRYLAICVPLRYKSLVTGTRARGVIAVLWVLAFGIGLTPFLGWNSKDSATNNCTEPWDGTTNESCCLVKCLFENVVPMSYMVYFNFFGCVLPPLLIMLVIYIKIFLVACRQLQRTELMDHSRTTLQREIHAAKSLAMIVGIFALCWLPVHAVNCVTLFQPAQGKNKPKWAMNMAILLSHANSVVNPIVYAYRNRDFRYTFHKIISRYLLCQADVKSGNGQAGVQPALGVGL
Description: (§1) Affinities for adenosine receptors were evaluated in radioligand binding assays as previously described. Human adenosine receptors were stably expressed in CHO cells. The following radioligands were used: [^3H]2-chloro-N^6-cyclopentyladenosine ([^3H]CCPA) for A1R; [^3H]3-(3-hydroxypropyl)-7-methyl-8-(m-methoxystyryl)-1-propargylxanthine ([^3H]MSX-2) for A2AR; [^3H]8-(4-(4-(4-chlorophenyl)piperazine-1-sulfonyl)phenyl)-1-propylxanthine ([^3H]PSB-603) for A2BR; [^3H]phenyl-8-ethyl-4-methyl-(8R)-4,5,7,8-tetrahydro-1H-imidazo [2,1-i]purine-5-one ([^3H]PSB-11) for A3R. Initially, compounds were tested at a concentration of 1 µM. […] At least three independent experiments were performed. Data were analyzed using GraphPad PRISM version 5.0 or higher (Graph Pad, San Diego, CA, USA). Ki were calculated using the Cheng–Prusoff equation.

human adenosine A3R = target: T2, human adenosine A3R (Homo sapiens, UniProt P0DMS8); assay: Radioligand binding at human adenosine A3 receptor vs. [3H]PSB-11; details: for inhibition at 1 µM: CHO cells, read-out: A3R vs. [H³]PSB-11 % Inhibition ± SEM at 1 µM; for Ki: human recombinant receptor in CHO cells, read-out: A3R vs. [H³]PSB-11 Ki ± SEM
T2 construct: expressed in transfected cells; host or cells: CHO cells
T2 sequence (P0DMS8 1-318): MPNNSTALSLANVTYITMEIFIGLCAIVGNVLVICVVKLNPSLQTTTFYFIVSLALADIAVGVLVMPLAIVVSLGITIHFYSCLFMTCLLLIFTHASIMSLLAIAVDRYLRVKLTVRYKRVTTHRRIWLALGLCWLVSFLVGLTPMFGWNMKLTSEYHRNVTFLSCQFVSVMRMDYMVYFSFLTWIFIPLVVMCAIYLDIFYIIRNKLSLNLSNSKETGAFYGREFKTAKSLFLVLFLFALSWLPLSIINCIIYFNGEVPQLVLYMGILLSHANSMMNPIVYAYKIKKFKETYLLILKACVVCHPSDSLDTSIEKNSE
Description: as §1

human adenosine A2AR = target: T3, human adenosine A2AR (Homo sapiens, UniProt P29274); assay: Radioligand binding at human adenosine A2A receptor vs. [3H]MSX-2; details: for Ki: human recombinant receptor in CHO cells, read-out: A2AR vs. [³H]MSX-2 Ki ± SEM; for A2AR vs. [³H]MSX-2 % Inhibition ± SEM at 1 µM: CHO cells
T3 construct: expressed in transfected cells; host or cells: CHO cells
T3 sequence (P29274 whole entry): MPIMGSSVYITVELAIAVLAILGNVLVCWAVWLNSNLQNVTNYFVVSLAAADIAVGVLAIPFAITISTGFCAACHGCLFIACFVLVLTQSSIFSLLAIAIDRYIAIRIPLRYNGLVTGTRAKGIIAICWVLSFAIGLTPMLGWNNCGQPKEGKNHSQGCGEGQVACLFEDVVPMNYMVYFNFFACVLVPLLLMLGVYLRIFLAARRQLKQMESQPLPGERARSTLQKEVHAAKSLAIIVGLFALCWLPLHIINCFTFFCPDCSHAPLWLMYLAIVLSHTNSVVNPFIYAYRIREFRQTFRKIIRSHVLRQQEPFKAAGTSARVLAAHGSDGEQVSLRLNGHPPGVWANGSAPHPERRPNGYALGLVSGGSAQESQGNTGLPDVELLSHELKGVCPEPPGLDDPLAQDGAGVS
Description: as §1

human adenosine A1R = target: T4, human adenosine A1R (Homo sapiens, UniProt P30542); assay: Radioligand binding at human adenosine A1 receptor vs. [3H]CCPA; details: for inhibition at 1 µM: CHO cells, read-out: A1R vs. [³H]CCPA % Inhibition ± SEM at 1 µM; for Ki: human recombinant receptor in CHO cells, read-out: A1R vs. [³H]CCPA Ki ± SEM
T4 construct: expressed in transfected cells; host or cells: CHO cells
T4 sequence (P30542 1-326): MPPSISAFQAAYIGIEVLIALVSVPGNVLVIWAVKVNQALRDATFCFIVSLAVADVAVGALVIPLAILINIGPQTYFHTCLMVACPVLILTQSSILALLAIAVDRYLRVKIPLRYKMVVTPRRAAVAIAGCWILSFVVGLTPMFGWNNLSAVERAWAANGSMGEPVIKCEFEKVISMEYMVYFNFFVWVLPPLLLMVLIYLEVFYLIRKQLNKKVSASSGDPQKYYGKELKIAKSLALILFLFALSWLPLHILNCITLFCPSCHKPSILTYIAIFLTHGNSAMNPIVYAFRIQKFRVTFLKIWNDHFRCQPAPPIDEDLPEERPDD
Description: as §1

Row | Compound | inhibition at 1 µM (human adenosine A2BR) [%] | Ki (human adenosine A2BR) [nM] | inhibition at 1 µM (human adenosine A3R) [%] | Ki (human adenosine A3R) [nM] | Ki (human adenosine A2AR) [nM] | inhibition at 1 µM (human adenosine A1R) [%] | Ki (human adenosine A1R) [nM] | melting point [°C] | A2AR vs. [³H]MSX-2 % Inhibition ± SEM at 1 µM (human adenosine A2AR) [%] | further results
1 | CC(=O)Oc1ccccc1C(=O)O [ASA, acetylsalicylic acid, reference compound] |  |  |  |  |  |  |  |  |  | ED50 (formalin test in mice; Mus musculus, II (late) phase, method of Litchfield and Wilcoxon, read-out: calculated ED50 in the formalin test): 126 mg/kg; Early Phase Inhibition (%) (formalin test in mice; 50 mg/kg): 12.4%; Late Phase Inhibition (%) (formalin test in mice; 50 mg/kg): 10.0%; Licking of the Hind Paw Early Phase (0–5 min) Mean ± SEM (formalin test in mice; 50 mg/kg): 59.8 ± 6.3 s; Licking of the Hind Paw Late Phase (15–30 min) Mean ± SEM (formalin test in mice; 50 mg/kg): 108.7 ± 13.8 s; Early Phase Inhibition (%) (formalin test in mice; 100 mg/kg): 14.3%; Late Phase Inhibition (%) (formalin test in mice; 100 mg/kg): 50.0%; Licking of the Hind Paw Early Phase (0–5 min) Mean ± SEM (formalin test in mice; 100 mg/kg): 58.5 ± 4.5 s; Licking of the Hind Paw Late Phase (15–30 min) Mean ± SEM (formalin test in mice; 100 mg/kg): 60.3 ± 9.5 ^c sec; Late Phase Inhibition (%) (formalin test in mice; 200 mg/kg): 66.3%; Licking of the Hind Paw Early Phase (0–5 min) Mean ± SEM (formalin test in mice; 200 mg/kg): 62.0 ± 8.6 s; Licking of the Hind Paw Late Phase (15–30 min) Mean ± SEM (formalin test in mice; 200 mg/kg): 40.6 ± 14.0 ^c sec
2 | CCCCn1c(=O)c2c(nc(NCc3ccccc3Cl)n2C)n(C)c1=O [compound 6, 1-Butyl-8-((2-chlorobenzyl)amino)-3,7-dimethyl-3,7-dihydro-1H-purine-2,6-dione] | 32 | > 1000 | 11 | > 1000 | 318 ± 141 | 21 | > 1000 | 181 to 183 |  | 
3 | CCCCCn1c(=O)c2c(nc(NCc3ccccc3Cl)n2C)n(C)c1=O [compound 7, 8-((2-Chlorobenzyl)amino)-3,7-dimethyl-1-pentyl-3,7-dihydro-1H-purine-2,6-dione] | 41 | > 1000 | 13 | > 1000 | > 1000 | 35 | > 1000 | 177 to 180 | 38 ± 4 | 
4 | CCCCCCn1c(=O)c2c(nc(NCc3ccccc3Cl)n2C)n(C)c1=O [compound 8, 8-((2-Chlorobenzyl)amino)-1-hexyl-3,7-dimethyl-3,7-dihydro-1H-purine-2,6-dione] | 13 | > 1000 | 31 | > 1000 | > 1000 | 17 | > 1000 | 191 to 194 | 9 ± 8 | 
5 | Cn1c(NCc2ccccc2Cl)nc2c1c(=O)n(Cc1ccccc1)c(=O)n2C [compound 9] | 9 | > 1000 | 24 | > 1000 | 323 ± 150 | 23 | > 1000 | 205 to 208 |  | 
6 | Cn1c(NCc2ccccc2Cl)nc2c1c(=O)n(Cc1ccc(Cl)cc1)c(=O)n2C [compound 10, 1-(4-Chlorobenzyl)-8-((2-chlorobenzyl)amino)-3,7-dimethyl-3,7-dihydro-1H-purine-2,6-dione] | 14 | > 1000 | 31 | > 1000 | > 1000 | 12 | > 1000 | 228 to 230 |  | 
7 | Cn1c(NCc2ccccc2Cl)nc2c1c(=O)n(Cc1ccc(Cl)c(Cl)c1)c(=O)n2C [compound 11, 8-((2-Chlorobenzyl)amino)-1-(3,4-dichlorobenzyl)-3,7-dimethyl-3,7-dihydro-1H-purine-2,6-dione] | 4 | > 1000 | 40 | > 1000 | > 1000 | 10 | > 1000 | 198 to 203 | 23 ± 7 | 
8 | C#CCn1c(=O)c2c(nc(NCc3ccccc3Cl)n2C)n(C2CC2)c1=O [compound 27, 8-((2-Chlorobenzyl)amino)-3-cyclopropyl-7-methyl-1-(prop-2-yn-1-yl)-3,7-dihydro-1H-purine-2,6-dione] | 9 | > 1000 | 16 | > 1000 | 311 ± 167 |  | 247 ± 43 | 172 to 173 |  | 
9 | C#CCn1c(=O)c2c(nc(NCc3ccccc3F)n2C)n(C2CC2)c1=O [compound 28, 3-Cyclopropyl-8-((2-fluorobenzyl)amino)-7-methyl-1-(prop-2-yn-1-yl)-3,7-dihydro-1H-purine-2,6-dione] | 14 | > 1000 | -2 | > 1000 | 386 ± 61 |  | 166 ± 65 | 190 to 192 |  | 
